In ChEMBL document CHEMBL3507680, “University of Dundee, Gates Library screen for HepG2 cell viability”:

Test: Human HepG2 cell viability assay in 384 well format
Assay type: toxicity, cell-based
Set-up: dose 125 nL, time 70.5 hour; cytotoxicity at 70.5 h: concentration not given beside the values
Conditions: HepG2 cells, read-out: Inhibition

Compound Cc1cnn(C2CN(Cc3nc4cc(Cl)ccc4n3C)C2)c1 has a cytotoxicity at 70.5 h of 7.22%.

Work on COC(=O)c1occc1Cn1cc(Br)cn1 yielded a cytotoxicity at 70.5 h of -2.08%.

For Cn1cc(CCCN2CCCC(c3cc(C(F)(F)F)[nH]n3)C2)cn1 (stereo not drawn), the cytotoxicity at 70.5 h was 6.94%.

Compound Cc1nc(S(=O)(=O)N2CCCCc3ccccc32)cn1C has a cytotoxicity at 70.5 h of 9.73%.

Work on OCCC1CCN(c2ccnc3ccsc23)C1 (stereo not drawn) yielded a cytotoxicity at 70.5 h of -3.95%.

COCCNS(=O)(=O)c1c(C)sc2ccccc12 gave a cytotoxicity at 70.5 h of -4.03%.

Work on CCOC(=O)C1(NCC(=O)Nc2cc(C)ccc2OC)CCCC1 yielded a cytotoxicity at 70.5 h of 21.1%.

For Cn1cc(CC(=O)N2CCCC(c3ccn[nH]3)C2)cn1 (stereo not drawn), the cytotoxicity at 70.5 h was -1.63%.

For COCCN(Cc1ccccn1)C(=O)Nc1cccnc1-n1cccn1, the cytotoxicity at 70.5 h was 18.4%.

For CCN(Cc1ccco1)C(=O)NCC(C)N1CCc2sccc2C1 (stereo not drawn), the cytotoxicity at 70.5 h was 13.6%.

For Cc1ccc(-c2noc(CCC(=O)NC(C)Cn3cccn3)n2)cc1 (stereo not drawn), the cytotoxicity at 70.5 h was -7.96%.

For Cc1cccc2c1OCCC2NCc1c(C(C)C)nn(C)c1N(C)C (stereo not drawn), the cytotoxicity at 70.5 h was -10.6%.

With CCS(=O)(=O)CC(=O)NC(C)c1ccc(OCCC(C)C)cc1 (stereo not drawn) the cytotoxicity at 70.5 h was -1.31%.

Work on O=C(CCn1cnc2cc(F)c(F)cc21)N1CCN2CCCCC2C1 (stereo not drawn) yielded a cytotoxicity at 70.5 h of -1.04%.

Work on CCCNc1nnc(S(=O)(=O)CCOCC)s1 yielded a cytotoxicity at 70.5 h of -0.768%.

CC(NC(=O)CSCC(N)=O)c1ccc(Oc2ccccc2)cc1 (stereo not drawn) showed a cytotoxicity at 70.5 h of -8.85%.

With O=C(NCCO)Nc1ccc(Cl)cc1-n1cccc1 the cytotoxicity at 70.5 h was 0.77%.

For CN(CC(=O)NC(N)=O)CC1(c2ccc(Br)cc2)CC1, the cytotoxicity at 70.5 h was -1.35%.

For Cc1nc(COc2ccc(OC3CCCCNC3=O)cc2)oc1C (stereo not drawn), the cytotoxicity at 70.5 h was 1.82%.

Compound Cc1cc(COc2ccc(OC3CCCCNC3=O)cc2)on1 (stereo not drawn) has a cytotoxicity at 70.5 h of -3.96%.

CN(CC(N)=O)CC1(c2ccc(Br)cc2)CC1 showed a cytotoxicity at 70.5 h of -5.53%.

With CN1CCC(NC(=O)Nc2cnn(-c3ccccc3Cl)c2)C1=O (stereo not drawn) the cytotoxicity at 70.5 h was -7.73%.

In the case of CC(C)OCCC(=O)NCC(O)c1c(Cl)cccc1Cl (stereo not drawn), the cytotoxicity at 70.5 h is reported as -3.94%.

Cc1ccc(S(=O)(=O)N2CCOCC2C(N)=O)c(F)c1 (stereo not drawn) gave a cytotoxicity at 70.5 h of -8.93%.

COc1cccc(-c2n[nH]cc2CNC2CCCN(C)C2)c1 (stereo not drawn) gave a cytotoxicity at 70.5 h of -5.83%.

For CC(C)OCc1ccccc1CNC(=O)C(C)S(=O)(=O)C(C)C (stereo not drawn), the cytotoxicity at 70.5 h was -5.26%.

For COC(=O)c1ccc(NC(C)c2ccc3c(c2)NC(=O)CO3)nn1 (stereo not drawn), the cytotoxicity at 70.5 h was -1.28%.

CC(C)c1noc(CCNC(=O)NCC2Cc3ccccc3O2)n1 (stereo not drawn) gave a cytotoxicity at 70.5 h of -13.5%.

Work on CCOc1ccc(SCCS(=O)(=O)CC)cc1 yielded a cytotoxicity at 70.5 h of -6.32%.

Work on COC(=O)c1ccc(Cl)c(NS(=O)(=O)c2cnn(C)c2)c1 yielded a cytotoxicity at 70.5 h of 10.2%.

For Cc1[nH]ccc1C(=O)NCC1CC(=O)N(CCc2ccccc2)C1 (stereo not drawn), the cytotoxicity at 70.5 h was -3.09%.

For CC(C)N(C)S(=O)(=O)N(C)Cc1cnn(C)c1, the cytotoxicity at 70.5 h was -3.87%.

CCCc1noc(CCCC(=O)N2CCCC(n3ccnc3C)C2)n1 (stereo not drawn) gave a cytotoxicity at 70.5 h of -2.44%.

For CCOc1ccc(CNC(=O)N2CCCC(CO)C2)cc1F (stereo not drawn), the cytotoxicity at 70.5 h was 0.25%.

Work on Cc1nccn1C1CCCN(C(=O)CCc2nc(C(C)C)no2)C1 (stereo not drawn) yielded a cytotoxicity at 70.5 h of -11.2%.

CCCc1noc(CCC(=O)N2CCCC(n3ccnc3C)C2)n1 (stereo not drawn) showed a cytotoxicity at 70.5 h of -9.38%.

Work on CN(Cc1ccco1)C(=O)NCc1ccnc(SC(C)(C)C)c1 yielded a cytotoxicity at 70.5 h of -8.67%.

Work on O=C(NC1CCCCNC1=O)c1cc2ccccc2[nH]c1=O (stereo not drawn) yielded a cytotoxicity at 70.5 h of -15.7%.

Compound O=C(NCc1ccc2c(c1)OCCO2)N1CCC(CO)CC1 has a cytotoxicity at 70.5 h of 4.7%.

With NC(=O)C1CCN(C(=O)NCc2ccc3c(c2)OCCO3)CC1 the cytotoxicity at 70.5 h was -9.87%.

Compound CC(=O)NCC1CCN(C(=O)NCCc2ccc3c(c2)OCO3)CC1 has a cytotoxicity at 70.5 h of -17.3%.

With CC(=O)NCC1CCN(C(=O)NCc2ccc3c(c2)OCCO3)CC1 the cytotoxicity at 70.5 h was -16.3%.

CCC(C)(CNC(=O)Nc1nncs1)N1CCOCC1 (stereo not drawn) showed a cytotoxicity at 70.5 h of -13.4%.

CCc1nc(C)c(C(=O)NCCNc2ncnc3sccc23)s1 gave a cytotoxicity at 70.5 h of 4.06%.

Work on CCc1ncncc1C(=O)NCCNc1ncnc2sccc12 yielded a cytotoxicity at 70.5 h of -21.7%.

In the case of N#Cc1ccc(CN2CCN(C(=O)CCn3cncn3)CC2)cc1, the cytotoxicity at 70.5 h is reported as 6.05%.

For CCCc1noc(CCC(=O)N2CCN(C)CC2c2ccccc2)n1 (stereo not drawn), the cytotoxicity at 70.5 h was -15%.

Compound Cc1ccc(C(=O)NC2CCCCNC2=O)c(=O)[nH]1 (stereo not drawn) has a cytotoxicity at 70.5 h of -6.58%.

With CN(c1ccc(F)cc1)S(=O)(=O)c1cc2c(c(C(=O)O)c1)OCCO2 the cytotoxicity at 70.5 h was -10.5%.

Work on CN(c1c(F)cccc1F)S(=O)(=O)c1cc2c(c(C(=O)O)c1)OCCO2 yielded a cytotoxicity at 70.5 h of 9.94%.

For COc1ncc(C2(O)CCN(Cc3cccc(F)c3F)CC2)c(OC)n1, the cytotoxicity at 70.5 h was -3.22%.

For Cc1nc(C)c(C(=O)N2CCc3nc4c(C)csc4c(=O)n3CC2)s1, the cytotoxicity at 70.5 h was 0.911%.

Compound Cc1ccc(-c2ccc(C3CNCCO3)nc2)cc1 (stereo not drawn) has a cytotoxicity at 70.5 h of -2.39%.

In the case of CC(C)c1nn(C)c(N(C)C)c1CNC1CCc2cc(F)ccc21 (stereo not drawn), the cytotoxicity at 70.5 h is reported as 5.83%.

With COc1cccc(-c2n[nH]cc2CNC2CCN(C3CC3)CC2)c1 the cytotoxicity at 70.5 h was 29.3%.

With Cc1cc(C[C@@H]2CCC[C@H]2NCc2ccccc2C)on1 the cytotoxicity at 70.5 h was -1.32%.

For Cc1cc(C[C@@H]2CCC[C@H]2NCc2ccc(C(F)(F)F)cc2)on1, the cytotoxicity at 70.5 h was -2%.

CC1(C)CC(N(Cc2cccnc2)Cc2cccnc2)CC(C)(C)N1 gave a cytotoxicity at 70.5 h of -1.63%.
